Read-outs that look alike come from different tables or passages of the source.
Experiments:
plasma cholesterol = assay: Blood cholesterol-lowering activity in rats on hypercholesterolemic diet; type: in vivo, rat; settings: male rats, Altromin C 1061 hypercholesterolemic diet 4 days, dose that reduces the plasma cholesterol concentration by half compared with control animals
Experimental: Male rats (160-180 g) were subjected, for 4 days, to an Altromin C 1061 hypercholesterolemic diet and treated in parallel orally with the compounds in suspension in a solution of 2% Tween 80 in distilled water.
On the 5th day, the animals not fasting are anaesthetized with ethyl ether, and bled out on EDTA via the abdominal aorta. The blood is immediately centrifuged and the plasma is stored at 4° C.
The plasma cholesterol is then assayed by the CHOD-PAP method (Boehringer Mannheim Ref. 237574). The 50% effective dose (ED50) corresponds to the dose that reduces the plasma cholesterol concentration by half compared with control animals.

[1] = Rattus norvegicus, po, 96 h, read-out: ED50

| melting point [°C] | SMILES | ED50 (plasma cholesterol; oral) [mg/kg] | ED50 (plasma cholesterol; [1]) [mg/kg] |
| --- | --- | --- | --- |
| 168 | CCCCCCCCCCCCn1nnc(C(F)(C(=O)Nc2c(C)c(C)c(N)c(C)c2C)c2ccccc2)n1.Cl (stereo not shown) | – | – |
| – | CCCCCCCCCCCCn1nnc(C(C(=O)Nc2cc(C)c(O)c(C)c2C)c2ccccc2)n1 (single isomer, unassigned; (+)) [Compound 5, (+)-2′,3′,5′-Trimethyl-4′-hydroxy-α-(2-dodecyl-2H-5-tetrazolyl)-α-phenylacetanilide] | 0.025 | – |
| – | CCCCCCCCCCCCn1nnc(C(F)(C(=O)Nc2cc(C)c(O)c(C)c2C)c2ccccc2)n1 (single isomer, unassigned; (+)) [Compound 9, (+)-21,3′,5′-Trimethyl-4′-hydroxy-α-(2-dodecyl-2H-5-tetrazolyl)-α-fluoro-α-phenylacetanilide] | – | 0.012 |
| – | CCCCCCCCCCCCS(=O)(=O)[C@H](C(=O)Nc1cc(C)c(O)c(C)c1C)c1ccccc1 [Compound 1, (S)-2′,3′,5′-Trimethyl-4′-hydroxy-α-dodecylsulfonyl-α-phenylacetanilide] | – | 0.25 |
| – | CCCCCCCCCCCCS(=O)(=O)C(F)(C(=O)Nc1cc(C)c(O)c(C)c1C)c1ccccc1 (stereo not drawn) [Compound 3, 2′,3′,5′-Trimethyl-4′-hydroxy-α-dodecylsulfonyl-α-fluoro-α-phenylacetanilide] | – | 0.022 |
| 105 | CCCCCCCCCCCCn1nnc(C(C(=O)Nc2cc(C)c(O)c(C)c2C)c2ccccc2)n1 (stereo not drawn) [Compound 4, 2′,3′,5′-Trimethyl-4′-hydroxy-α-(2-dodecyl-2H-5-tetrazolyl)-α-phenylacetanilide] | – | 0.029 |
| 96 | Cc1cc(NC(=O)C(F)(c2ccccc2)c2nnn(CCCCCCCCCCCC(F)F)n2)c(C)c(C)c1O (stereo not drawn) [Compound 10, 2′,3′,5′-Trimethyl-4′-hydroxy-α-[2-(12,12-difluoro-dodecyl)-2H-5-tetrazolyl]-α-fluoro-α-phenylacetanilide] | – | 0.029 |
| – | CCCCCCCCCCCCS[C@H](C(=O)Nc1cc(C)c(O)c(C)c1C)c1ccccc1 [Eflucimibe, reference compound] | – | 0.12 |

From patent US20060135785A1, “Alpha-phenyl acetanilide derivatives having an acat inhibiting activity and the therapeutic application thereof” (Pierre Fabre Medicament, priority 2002, published 2006)
